Results published in patent US6492137B1, “Response element compositions and assays employing same” (The Salk Institute for Biological Studies, priority 1989, dated 2002).

How the values were obtained:
[1] = test system: endogenous RA receptor; experiment: Delta-MTV-CAT constructs, RA induction in CV-1 cells without cotransfected RAR expression vector; assay type: cell-based, monkey
Method: (§1) Cells were transfected in 10 cm dishes with 10 μg of DNA containing 5 μg of reporter plasmid, 1-2 μg of either RSV-LUC (a), or RSV-βGAL or pCH110 (c and d), pGEM4 as carrier DNA, and for the experiments shown in a and d, 1 μg of RSV-RAR expression vector or the same amount of an RSV vector generating a nonsense transcript. Cells were harvested 1 day after addition of retinoic acid. All CAT assays represent equivalent amounts of β-galactosidase activity; β-GAL assays were normalized to luciferase activity.

[2] = target: T1, RAR (Homo sapiens, UniProt P10276); experiment: Delta-MTV constructs, RA induction in CV-1 cells with cotransfected RAR expression vector; assay type: cell-based; settings: Delta-MTV-CAT constructs; CV-1 cells
T1 construct: expressed in transfected cells; host or cells: CV-1 (monkey kidney)
T1 sequence (P10276 1-462): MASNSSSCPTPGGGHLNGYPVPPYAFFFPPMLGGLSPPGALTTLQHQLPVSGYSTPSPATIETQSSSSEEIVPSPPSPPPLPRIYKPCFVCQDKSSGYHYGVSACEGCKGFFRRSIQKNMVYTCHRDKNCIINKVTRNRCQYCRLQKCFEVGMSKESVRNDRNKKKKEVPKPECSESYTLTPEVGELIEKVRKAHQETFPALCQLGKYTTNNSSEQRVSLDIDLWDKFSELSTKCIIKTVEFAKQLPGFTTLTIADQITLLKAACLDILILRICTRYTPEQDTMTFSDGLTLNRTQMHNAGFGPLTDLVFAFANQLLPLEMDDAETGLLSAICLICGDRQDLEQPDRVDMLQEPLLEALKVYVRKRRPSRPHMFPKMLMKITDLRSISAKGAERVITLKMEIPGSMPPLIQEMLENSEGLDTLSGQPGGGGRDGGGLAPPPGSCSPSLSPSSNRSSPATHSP
Method: Inspection of the sequences of βRE1, βRE2, and βRE3 (see FIG. 2b) identifies a tandem repeat of the 6 bp motif. The center to center separation of 11 bp between these repeats is one turn of the DNA helix. […] Apparently, a single half site element of the RARβ gene would reciprocally be responsive to the TR, ER, and/or other members of the receptor superfamily.
as §1

[3] = test system: endogenous RA receptor; experiment: Survey of cell lines for RA-dependent transactivation of the βRARE without transfected RAR; assay type: cell-based; settings: CV-1, F9, P19, CHO, HeLa, NIH 3T3, Rat2 fibroblasts, HT1080.T, chick embryo fibroblasts, quail QT6 cells
[4] = target: T2, TRβ (Homo sapiens, UniProt P10828); experiment: Gel retardation DNA-binding assay with TRβ-expressing COS cell extracts; set-up: expressed in transfected cells; host or cells: COS cells (whole-cell extract)
T2 sequence (P10828 1-461): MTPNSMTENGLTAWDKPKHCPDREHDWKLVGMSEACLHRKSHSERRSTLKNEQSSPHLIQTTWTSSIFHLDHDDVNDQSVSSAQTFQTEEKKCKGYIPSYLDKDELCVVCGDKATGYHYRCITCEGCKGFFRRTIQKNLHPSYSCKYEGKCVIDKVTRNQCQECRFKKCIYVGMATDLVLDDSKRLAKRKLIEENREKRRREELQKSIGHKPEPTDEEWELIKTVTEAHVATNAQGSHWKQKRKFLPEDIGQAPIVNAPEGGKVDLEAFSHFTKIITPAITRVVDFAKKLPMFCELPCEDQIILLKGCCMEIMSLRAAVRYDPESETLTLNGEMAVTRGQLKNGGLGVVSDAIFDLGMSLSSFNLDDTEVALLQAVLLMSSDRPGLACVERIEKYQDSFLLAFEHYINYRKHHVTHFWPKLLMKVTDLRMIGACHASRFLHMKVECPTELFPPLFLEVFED
Summary of the method: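 Extracts of COS cells transfected with pCMX TRβ expression plasmid, 48 h post-transfection; 5 μg protein pre-incubated on ice 20 min with poly dI/dC, then 40 fmole 32P-labelled oligonucleotide 30 min at room temperature. Complexes resolved on 5% polyacrylamide gel.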

[5] = target: T3, RARα (Homo sapiens, UniProt P10276); experiment: Gel retardation DNA-binding assay with RARα-expressing COS cell extracts; set-up: expressed in transfected cells; host or cells: COS cells (whole-cell extract)
T3 sequence (P10276 1-462): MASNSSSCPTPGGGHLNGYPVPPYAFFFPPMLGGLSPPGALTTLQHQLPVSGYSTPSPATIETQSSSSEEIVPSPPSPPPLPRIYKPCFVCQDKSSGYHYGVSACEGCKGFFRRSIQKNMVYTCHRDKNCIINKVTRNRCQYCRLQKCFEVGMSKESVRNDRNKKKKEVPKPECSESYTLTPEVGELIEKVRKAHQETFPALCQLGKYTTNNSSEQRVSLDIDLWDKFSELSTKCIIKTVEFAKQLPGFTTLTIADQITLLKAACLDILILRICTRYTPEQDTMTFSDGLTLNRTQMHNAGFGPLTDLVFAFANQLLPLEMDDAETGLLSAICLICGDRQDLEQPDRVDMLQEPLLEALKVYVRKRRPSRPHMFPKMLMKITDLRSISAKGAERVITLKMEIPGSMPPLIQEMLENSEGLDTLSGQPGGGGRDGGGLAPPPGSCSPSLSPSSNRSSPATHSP
Method: For DNA binding assays, COS cells were cultured in DMEM with 10% calf bovine serum and transfected by the calcium phosphate method with 20 μg of the pCMX receptor expression plasmid for 6 hours followed by a glycerol shock. After incubating the transfected COS cells for another 48 hours, the cells were harvested to prepare extracts for the DNA binding assay, carried out as described by Damm et al., Nature 339: 593-597 (1989). The extracts were made in 20 mM HEPES (pH 7.4), 0.4 M KCl, 2 mM DTT and 20% glycerol. A similar method was employed to prepare a whole cell extract from F9 stem cells. For the binding, 5 μg (COS) or 10 μg (F9) of proteins was incubated on ice for 20 minutes, first in 20 mM HEPES, 80 mM KCl, 1 mM DTT, 0.1% NP40, 2.5 μg of poly dI/dC, and 10% glycerol (cold competitor oligonucleotides, when included, were added during this pre-incubation period). Then 40 fmole of ^32P-labeled oligonucleotide probe (1-2×10^5 cpm, prepared by filling-in reaction using Klenow polymerase in the presence of α-^32P-dCTP) was added to the reaction mixture, followed by incubation at room temperature for 30 minutes. The receptor-DNA complexes were resolved by electrophoresis through 5% polyacrylamide gel containing 5% glycerol at 6 V/cm at room temperature.
Oligonucleotides listed in FIG. 3 were used as a probe to test specific DNA-binding of the RARα and TRβ in a gel retardation assay. On the βRARE, a faint background binding activity was detected in the mock transfected COS cell extract. […] In each case the result obtained from in vivo transactivation and in vitro DNA binding are consistent.
Using the mobility shift assay, the DNA-binding capacity of extracts from COS cells expressing TRβ and RARα to these sequences was also tested. […] This pattern is consistent with that of the in vivo activation (FIG. 4). A reciprocal pattern was obtained when the same oligonucleotides were used to compete RARα binding to the ^32P-labeled βRARE. […] This provides a striking example of the role of half-site spacing in generating a functional response element.

[6] = target: T4, Retinoic acid receptor alpha (RARα), in CV-1 cells (Homo sapiens, UniProt P10276 P10276:1-462); experiment: cell_activity; RA 1 µM, CV-1; settings: tags: RSV or pRS expression vector; label: 32P; 5'-agct overhangs
T4 sequence: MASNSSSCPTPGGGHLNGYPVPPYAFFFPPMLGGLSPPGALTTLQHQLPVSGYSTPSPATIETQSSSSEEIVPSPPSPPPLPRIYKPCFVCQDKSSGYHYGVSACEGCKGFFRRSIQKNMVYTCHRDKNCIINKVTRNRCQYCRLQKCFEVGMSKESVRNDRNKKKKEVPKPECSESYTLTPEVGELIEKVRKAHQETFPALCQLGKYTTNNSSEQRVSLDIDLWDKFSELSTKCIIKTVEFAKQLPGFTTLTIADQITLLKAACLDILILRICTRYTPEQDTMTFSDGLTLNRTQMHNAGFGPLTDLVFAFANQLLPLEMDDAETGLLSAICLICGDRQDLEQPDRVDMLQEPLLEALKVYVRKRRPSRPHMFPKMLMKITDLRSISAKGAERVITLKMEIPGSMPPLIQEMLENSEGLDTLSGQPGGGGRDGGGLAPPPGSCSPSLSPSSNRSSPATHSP
Method: For cotransfection assays, a monkey kidney cell line CV-1 was kept in Dulbecco's modified Eagle's medium (DMEM) supplemented with 10% charcoal-resin double split calf bovine serum. Transfections were performed via calcium-phosphate precipitation method as described by Umesono, et al. in Cell 57: 1139–1146 (1989), with 0.5 μg of a pRS receptor expression plasmid, 1.0 μg of a reporter CAT plasmid, 5 μg of pRAS-βGAL [Umesono, et al., Cell 57: 1139–1146 (1989)] as an internal control, and 8.5 μg of carrier plasmid pUC19. The cells were transfected for 8 hours; after washing the DNA precipitates, the cells were then incubated for an additional 36 hours with or without the ligand (T_3, 100 nM; RA, 1 μM; 1,25-(OH)_2 vitamin D_3, 100 nM). Cell extracts were prepared for βGAL and CAT assays, as described by Umesono, et al., supra. Transfection of F9 teratocarcinoma cells was carried out employing a similar method except the cells were incubated for 12 hours in the presence of the DNA precipitates, and the RA was added at 1 μM for another 24 hours before harvesting the cells. 2, 5, and 4 μg of the reporter, pRAS-βGAL, and pUC19 were used, respectively.
The above strategies were used to test both in vivo transactivation and in vitro DNA-binding of these artificial HREs for TRβ, RARα, and VDR. […]

5′-AAGCTTAAG-GGTTCA-CCGAA-AGTTCA-CTCGCATAGCTT-3′ (SEQ ID NO:6) (AAGCTTAAGGGTTCACCGAAAGTTCACTCGCATAGCTT; DNA, backbone not given here) [βRE2, oligonucleotide including the β retinoic acid response element; βRARE corresponds to βRE2]
RA-dependent induction in the absence of cotransfected RAR expression vector [1]: robust RA-dependent induction
increase of induction by cotransfection of RAR-alpha expression vector [2]: two-fold
RA-dependent transactivation in the absence of transfected RAR expression vector [3]: efficiently transactivate
TRβ binding to labeled oligonucleotide probe ([4]; gel retardation, TRβ COS cell extract): weak, yet detectable binding activity
competition for TRβ binding (mobility shift assay) ([4]; unlabeled competitor oligonucleotide, COS cells expressing TRβ): poor competitors
RARα binding to labeled oligonucleotide probe ([5]; gel retardation, RARα COS cell extract): dramatically enhanced
competition for RARα binding to 32P-labeled βRARE ([5]; unlabeled competitor oligonucleotide, COS cell extracts): effective competitors

B1: DR-5 (dsDNA)
DNA 1: AGCTTCAGGTCACCAGGAGGTCAGAGAGCT
DNA 2: AGCTCTCTGACCTCCTGGTGACCTGAAGCT
activity [6]: 9 fold induction
